The text below walks through data of patent publication US5973116A, “Compounds for targeting” (Imperial Cancer Research Technology Limited, priority 1993, dated 1999).

Read-outs that look alike come from different tables or passages of the source.

Assay [1] concerns pRAS111 ScFvNP protein (VHNP (G4S)3 VλJ558L, SEQ ID No 3). Put plainly: ELISA-based affinity determinations of pRAS111 ScFvNP protein (methods of Mariani et al 1987 and Hogg et al 1987). The format is binding, mouse. The settings on record: for Kd: antigen coat. From the text:
Affinity of pRAS111 ScFv for NIP was estimated firstly by adapting the method of Mariani et al (1987) Molec. Immunol. […] This approximation only holds true if the number of available binding sites per well is sufficiently low that their contribution is insignificant. Determinations of Kapp should approach Kactual as the amount of antigen per well is reduced.
To confirm the accuracy of this approach, similar estimations of K were made using the method of Hogg et al (1987) Molec. Immunol. 24, 797-801) in the absence of competing antigen, by calculating the slope of the linear portion of a plot of A450 /[ScFvNP ] v A450, where A450 /[ScFvNP ]=fKn-fK(A450), A450 is the absorbance at 450 nm, [ScFvNP ] is the concentration of added ScFvNP, n is the concentration of available binding sites and f is the valency of the ScFvNP for NIP. A value of 1 was assigned to f.

The target of assay [2] is ScFv encoded by pRAS111 (ScFvNP, VHNP (G4S)3 VλJ558L, SEQ ID No 3). In words: ELISA binding and competition of pRAS111 ScFv on a NIP15-BSA coat. The arrangement: species or system mouse. The conditions noted are these: read-out: binding affinity for NP, Kd. How it is done: Filtered bacterial supernatants were applied to wells of a 96-well plate previously coated with […] NIP15 -BSA or […] egg lysozyme, and bound protein was detected by serial incubation with biotinylated Gαmλ antiserum and HRPO-streptavidin conjugate. Colour changes were generated by incubation with ABTS and were monitored at 405 nm.
A soluble protein present in the growth medium of JM109 (DE3)/pRAS111 cultures, but not in cultures of JM109 (DE3), binds NIP15 -BSA, but not lysozyme (FIG. 5). Filtered bacterial growth medium recovered after induction of pRAS111 protein was applied to wells of an ELISA plate coated with 10 μg.ml^-1 NIP15 -BSA (.circle-w/dot.) or 300 μg.ml^-1 hen egg lysozyme (.diamond-solid.). Bound protein was detected by serial incubation with biotinylated Gαmλ (Goat anti-mouse lambda light chain) antisera and horseradish peroxidase conjugated streptavidin diluted in blocking buffer, and colour changes generated by addition of ABTS were monitored at 405 nm. A soluble protein present in the growth medium of JM109(DE3)/pRAS111 cultures, but not in cultures of JM109(DE3), binds NIP15 -BSA, can be competed with NIP15 -BSA (FIG. 6). […] Bound protein was detected by serial incubation with biotinylated Gαmλ antisera and horseradish peroxidase conjugated streptavidin, and colour changes generated by addition of ABTS were monitored at 405 nm.

The mark [3] stands for this setting: concn 5 mg ml^-1 of coating buffer, no competing antigen, f = 1, read-out: K, Hogg et al (1987) (converted).
[4] abbreviates: concn 5 mg ml^-1 of coating buffer, read-out: K, Mariani et al (1987) (converted).

Consider `O=C(O)Cc1cc(I)c(O)c([N+](=O)[O-])c1` [NIP, 4-hydroxy-3-iodo-5-nitrophenylacetic acid], for which, in assay [1] (method of Mariani et al (1987), Ct50 = 1/Kapp, at low amount of antigen per well), the “Kapp, affinity for NIP (K)” value is given as 2-3×10^8 M^-1.
For the molecule `O=C(O)Cc1ccc(O)c([N+](=O)[O-])c1` [NP, 4-hydroxy-3-nitrophenylacetic acid], the Kd in assay [2] was determined as 4 nM.
On to “NIP4 BSA: low coupling ratio NIP-BSA, 3.7 haptens per protein molecule”, for which the Kd in assay [1] (setting [3]) was 5.56 nM; in assay [1] (setting [4]) it was 4 nM; in assay [1] (concn 10 mg ml^-1 of coating buffer, no competing antigen, f = 1, read-out: K, Hogg et al (1987) (converted)), 8.33 nM; in assay [1] (concn 10 mg ml^-1 of coating buffer, read-out: K, Mariani et al (1987) (converted)) it was 3.45 nM.
For “NIP16 BSA: high coupling ratio NIP-BSA, 16.4 haptens per protein molecule”, the Kd in assay [1] (concn 1 mg ml^-1 of coating buffer, no competing antigen, f = 1, read-out: K, Hogg et al (1987) (converted)) is 1.23 nM; in assay [1] (concn 1 mg ml^-1 of coating buffer, read-out: K, Mariani et al (1987) (converted)), 1.22 nM; in assay [1] (setting [3]), 0.625 nM; in assay [1] (setting [4]), 0.4 nM.
As to “NIP conjugated to BSA: hapten NIP coupled to BSA via NIP-cap-OSu”, the “affinity for NIP conjugated to BSA” value in assay [1] (pH 7.4) is on record as 1-3×10^8 M^-1.
